The record followed here is patent publication US12319655B2, “RAF kinase inhibitors and methods of use thereof” (Deciphera Pharmaceuticals, LLC, priority 2021, dated 2025).

In this test the test system is H2405 cells. Briefly: H2405 Cell Proliferation Assay (2). Type of test: cell-based. The settings on record: Homo sapiens, NCI-H2405. The protocol:
H2405 Cell Proliferation Assay (2)
H2405 cells (catalog #CRL-5994) are obtained from the American Type Culture Collect (ATTC, Manassas, VA). Briefly, cells were grown in RPMI 1640 supplemented with 5% characterized fetal bovine serum (Invitrogen, Carlsbad, CA) and 1% Penicillin/Streptomycin/L-Glutamine at 37° C., 5% CO2, and 95% humidity. Cells are expanded until reaching 70-95% confluency at which point they are sub-cultured or harvested for assay use. A serial dilution of test compound is dispensed into a 384-well black clear bottom plate in triplicate. Seven hundred fifty cells are added per well in 50 μL complete growth medium in the 384-well plate. Plates are incubated for 67-72 h at 37° C., 5% CO2, and 95% humidity. At the end of the incubation, 10 μL of a 440 μM solution of resazurin (Sigma, St. Louis, MO) in PBS is added to each well of the plate and plates are incubated for an additional 5-6 h at 37° C., 5% CO2, and 95% humidity. Plates are read on a Synergy2 or equivalent reader (Biotek, Winooski VT) using an excitation of 540 nm and an emission of 600 nm. Data is analyzed using Prism software (GraphPad, San Diego, CA) to calculate IC50 values
With `Cc1ccc(NC(=O)c2ccnc(C3(C#N)CC3)c2)cc1-c1ccnc(-c2ccnc(NC(=O)C3CC3)c2)c1` [Example 457], the IC50 (in general, the concentration that gives 50% inhibition) was ≤ 100 nM. With `CNC(=O)c1cc(-c2cc(-c3cc(NC(=O)c4ccnc(C(C)(C)F)c4)ccc3C)ncn2)ccn1` [Example 474], the IC50 was ≤ 100 nM. For `CNC(=O)c1cc(-c2cc(-c3cc(NC(=O)c4ccnc(C(C)(C)F)c4)ccc3C)c(F)cn2)ccn1` [Example 469] the value was 100 to 500 nM; for `CNC(=O)c1cc(-c2cc(-c3cc(NC(=O)c4ccnc(C(C)(C)F)c4)ccc3C)cc(C)n2)ccn1` [Example 470], ≤ 100 nM. For `Cc1ccc(NC(=O)c2ccnc(C(C)(C)F)c2)cc1-c1ccnc(-c2ccnc(C(N)=O)c2)c1` [Example 476] the value was ≤ 100 nM; for `Cc1ncc(NC(=O)c2ccnc(C(C)C)c2)cc1-c1ccnc(-c2ccnc(NC(=O)C3CC3)c2)c1` [Example 468], ≤ 100 nM. On to `Cc1ccc(NC(=O)c2ccnc(C(C)(C)F)c2)cc1-c1ccnc(-c2ccnc(C(=O)NCCO)c2)c1` [Example 448], for which the IC50 was in the range of 100 to 500 nM. `CNC(=O)c1cc(-c2cc(-c3cc(NC(=O)c4ccnc(C5CC5)c4)ccc3C)ccn2)ccn1` [Example 460]: the 50% inhibitory concentration (IC50) lay within 100 to 500 nM. For `Cc1ccc(NC(=O)c2ccnc(C(C)C)c2)cc1-c1ccnc(-c2ccnc(NC(=O)C3CC3)c2)c1` [Example 467] the value was ≤ 100 nM; for `CNC(=O)c1cc(-c2cncc(-c3cc(NC(=O)c4ccnc(C(C)(F)F)c4)ccc3C)c2)ccn1` [Example 440], 100 to 500 nM; for `Cc1ncc(NC(=O)c2ccnc(C3(C#N)CC3)c2)cc1-c1ccnc(-c2ccnc(NC(=O)C3CC3)c2)c1` [Example 461], ≤ 100 nM. For `CNC(=O)c1cc(-c2cc(-c3cc(NC(=O)c4ccnc(C(C)(C)F)c4)ccn3)ccn2)ccn1` [Example 481] the value was 1000 to 10000 nM; for `Cc1ccc(NC(=O)c2ccnc(C(C)(C)C#N)c2)cc1-c1ccnc(-c2ccnc(NC(=O)C3CC3)c2)c1` [Example 456], ≤ 100 nM. Under `Cc1ncc(NC(=O)c2ccnc(C(C)(F)F)c2)cc1-c1ccnc(-c2ccnc(NC(=O)C3CC3)c2)c1` [Example 466] stands 100 to 500 nM. In the case of `Cc1cc(-c2cc(NC(=O)c3ccnc(C(C)(C)F)c3)ccc2C)cc(-c2ccnc(C(N)=O)c2)n1` [Example 484], the IC50 fell in the range of 100 to 500 nM. Under `CNC(=O)c1cc(-c2cc(-c3cc(NC(=O)c4ccnc(C(C)(C)F)c4)cc(F)c3F)ccn2)ccn1` [Example 478] stands ≤ 100 nM; under `Cc1ccc(NC(=O)c2ccnc(C(C)(F)F)c2)cc1-c1ccnc(-c2ccnc(NC(=O)C3CC3)c2)c1` [Example 459], ≤ 100 nM. Consider `CNC(=O)c1cc(-c2cc(-c3cc(NC(=O)c4ccnc(C5CC5)c4)cnc3C)ccn2)ccn1` [Example 462], for which the IC50 lay in the range of 500 to 1000 nM.

For `Cc1ccc(NC(=O)c2ccnc(C(C)(C)F)c2)cc1-c1ccnc(-c2ccnc(C(=O)NC3CN(C)C3)c2)c1` [Example 450], the IC50 fell in the range of 100 to 500 nM. On to `CNC(=O)c1cc(-c2cncc(-c3cc(NC(=O)c4ccnc(C(C)(F)F)c4)ccc3C)c2)ncn1` [Example 439], for which the IC50 lay in the range of 100 to 500 nM. With `CNC(=O)c1cc(-c2cc(-c3cc(NC(=O)c4ccnc(C(C)C)c4)ccc3C)ccn2)ccn1` [Example 443], the 50% inhibitory concentration (IC50) is ≤ 100 nM. For `CNC(=O)c1cc(-c2cc(-c3cc(NC(=O)c4ccnc(C(C)(C)F)c4)c(F)cc3F)ccn2)ccn1` [Example 482], the IC50 lay in the range of 100 to 500 nM. Under `CNC(=O)c1cc(-c2cc(-c3cc(NC(=O)c4ccnc(C(C)(C)F)c4)ccc3C)c(C)cn2)ccn1` [Example 472] stands 100 to 500 nM.

For the compound `CNC(=O)c1cc(-c2cc(-c3cc(NC(=O)c4ccnc(C(C)(C)F)c4)cc(F)c3C)ccn2)ccn1` [Example 480], the half-inhibitory concentration (IC50) lay in the range of 100 to 500 nM.

`Cc1ncc(NC(=O)c2ccnc(C(C)(C)F)c2)cc1-c1ccnc(-c2ccnc(NC(=O)C3CC3)c2)c1` [Example 454]: the IC50 was ≤ 100 nM. For `Cc1ccc(NC(=O)c2ccnc(C(C)(C)F)c2)cc1-c1ccnc(-c2ccnc(NC(=O)C3CC3)c2)c1` [Example 455] the value was ≤ 100 nM.
